Results: patent US10238616B2, “Immunomodulator” (WAKUNAGA PHARMACEUTICAL CO., LTD., priority 2014, dated 2019)

Legend:
IgA-producing B cells [1] = assay: Promoting effect of IgA production (in vivo) <2>: IgA-producing B cells in Peyer's patches; design: species or system mouse; details: female C57BL/6N mice, oral administration for five days, compared with water administration group
Text: (§1) Animals for the biological activity evaluation were reared as follows. Female C57BL/6N mice for tests were purchased from CLEA Japan, Inc. After the purchase, the mice were acclimated for a week, and then used as the animals for the evaluation test.
The animals for the evaluation test of (3) above were orally administered with the sample prepared in (1) (b) above for five days, and then sacrificed. The small intestines were removed, from which Peyer's patches were collected. The Peyer's patches were ground, to which Collagenase D was added to give a final concentration of 1 mg/mL and DNAase I was added to give a final concentration of 20 μg/mL. Treatment was continued for 30 minutes while shaking at 37° C., followed by centrifugation at 1,500 rpm. The resulting supernatant was removed. Then, 2 mL of 5% FBS-containing Hank's Balanced Salt Solution containing 5 mM EDTA was added, followed by treatment for five minutes while shaking at 37° C. Upon completion of treatment, the resultant was passed through a 40 μm mesh to remove tissue pieces and collect lymphocytes. […] Upon completion of treatment, 1×10^4 lymphocytes were analyzed by using a flow cytometer to count the number of IgA-producing B cells which reacted to the anti-mouse CD45 antibody (B220) and the anti-mouse immunoglobulin A antibody.

IgA-producing B cells [2] = assay: Promoting effect of IgA production (in vivo) <3>: IgA-producing B cells in the peritoneal cavity; design: species or system mouse; details: female C57BL/6N mice, oral administration for five days, compared with water administration group
Method: as §1
The animals for the evaluation test of (3) above were orally administered with the sample prepared in (1) (b) above for five days. The animals were sacrificed and a laparotomy was performed without breaking the peritoneum. Then, 3 mL of 5% FBS-containing Hank's Balanced Salt Solution was placed in a 5 mL syringe and injected into the peritoneal cavity using a 27G needle. Then, the peritoneum was pressed with fingers to spread the injected solution evenly throughout the peritoneal cavity, followed by collecting the intraperitoneal solution using a 18G needle. The intraperitoneal solution thus collected was centrifuged at 1,500 rpm for five minutes. The resulting supernatant was removed and peritoneal cells were collected. […] Upon completion of treatment, 1×10^4 lymphocytes were analyzed by using a flow cytometer to count the number of IgA-producing B cells which reacted to the anti-mouse CD45 antibody (B220) and the anti-mouse immunoglobulin A antibody.

IgA = assay: Promoting effect of IgA production (in vivo) <1>: IgA in intestinal lavage fluids; design: species or system mouse; details: female C57BL/6N mice, oral administration for five days, compared with water administration group
Method: as §1
(§2) Mouse IgA Quantitation Kit manufactured by Bethyl laboratories, Inc was purchased and the amount of IgA produced was measured. The wash solution or culture supernatant to be measured was placed in a 96-well plate coated with an anti-IgA antibody. After adding various reaction reagents, the absorbance was measured by using a plate reader.
The animals for the evaluation test of (3) above were orally administered with the sample prepared in (1) (b) above for five days, and then sacrificed and the small intestines were removed. Phosphate buffer (5 mL) was passed through the small intestines and the contents of the small intestines and the lavage fluids collected. The collected products were combined and centrifuged, and the amount of IgA in the resulting supernatant was quantified by ELISA.

IgA production [3] = assay: Promoting effect of IgA production (in vitro) <2>; type: cell-based, mouse; details: spleen lymphocytes of female C57BL/6N mice, 0.03, 0.1 and 0.3 mM, three days at 37° C.
Method: (§3) Cells for the biological activity evaluation were prepared as follows. Female C57BL/6N mice for tests were purchased from CLEA Japan, Inc. After the purchase, the mice were acclimated for a week, and then sacrificed and the spleens were taken out. The excised spleens were crushed and passed through a mesh to collect lymphocytes, which were used as the cells for the evaluation test.
as §2
The lymphocytes obtained from the cells for the evaluation test of (2) above were prepared at 5×10^6 cells/mL with a 10% serum-containing medium and inoculated into a 48-well plate at 200 μL each.
To the cells, chemically synthesized cis-S-1-propenycysteine and trans-S-1-propenycysteine, and S-1-propenycysteine (a cis/trans mixture) prepared in Production Example 2 were added at concentrations of 0.03, 0.1, and 0.3 mM, followed by culturing at 37° C. for three days. Subsequently, the amount of IgA produced in the culture supernatants was measured by ELISA.

IL-6 production [4] = assay: Inhibitory effect on IL-6 production under LPS stimulation (in vitro) <2>; type: cell-based, mouse; details: spleen lymphocytes, 3 μg/mL Salmonella-derived LPS, 0.3 mM, 24 hours at 37° C.
Method: as §3
(§4) Mouse IL-6 ELISA Ready-SET-Go! Kit manufactured by eBioscience was purchased and the amount of IL-6 produced was measured. The culture supernatant to be measured was placed in a 96-well plate coated with an anti-IL-6 antibody. After adding various reaction reagents, the absorbance was measured by using a plate reader.
The lymphocytes obtained from the cells for the evaluation test of (2) above were prepared at 5×10^6 cells/mL with a 10% serum-containing medium and inoculated into a 48-well plate at 200 μL each. To these cells, chemically synthesized cis-S-1-propenycysteine and trans-S-1-propenycysteine, SAC, and S-1-propenycysteine (a cis/trans mixture) prepared in Production Example 2 were added at a concentration of 0.3 mM in the presence of 3 μg/mL Salmonella-derived lipopolysaccharides (LPS), followed by culturing at 37° C. for 24 hours. Upon completion of culture, the supernatants were collected and the amount of IL-6 was measured by ELISA.

IL-6 production [5] = assay: Inhibitory effect on IL-6 production under LPS stimulation (in vitro) <1>; type: cell-based, mouse; details: spleen lymphocytes, 1 μg/mL Escherichia coli 055-derived LPS, 0.1 mM
Method: as §3, §4
(§5) The lymphocytes obtained from the cells for the evaluation test of (2) above were prepared at 1×10^6 cells/mL with a 10% serum-containing medium and inoculated into a 24-well plate at 1 mL each. Subsequently, Escherichia coli 055-derived lipopolysaccharides (LPS) were added at 1 μg/mL, and then the samples prepared in (1) (b) above were added at 0.1 mM, followed by culturing at 37° C. for 24 hours or three days. Upon completion of culture, the supernatants were collected and the amounts of IL-6 and IgA were measured by ELISA.

IgA production [6] = assay: Promoting effect of IgA production (in vitro) <1>; type: cell-based, mouse; details: spleen lymphocytes of female C57BL/6N mice, 0.1 mM, three days at 37° C., compared with other sulfur-containing amino acid compounds
Method: as §3, §2
The lymphocytes obtained from the cells for the evaluation test of (2) above were prepared at 1×10^6 cells/mL with a 10% serum-containing medium and inoculated into a 24-well plate at 1 mL each, or prepared at 1×10^6 cells/200 μL and inoculated into a 48-well plate at 200 μL each. Subsequently, of the samples prepared in (1) above, those prepared in (1) (a) above were appropriately diluted and added to the 24-well plate so that the final concentration was 4 mg/mL, and those prepared in (1) (b) was added to the 48-well plate at 0.1 mM. After culturing for three days at 37° C., the supernatants were collected and the amount of IgA was measured by ELISA.

IgA production [7] = assay: Promoting effect on IgA production under LPS stimulation (in vitro) <1>; type: cell-based, mouse; details: spleen lymphocytes, 1 μg/mL Escherichia coli 055-derived LPS, 0.1 mM, compared with no stimulation
Method: as §3, §2, §5

Row | Compound | number of IgA-producing B cells in Peyer's patches (flow cytometer), FIG. 4 (IgA-producing B cells [1]) | number of IgA-producing B cells in the peritoneal cavity (flow cytometer), FIG. 5 (IgA-producing B cells [2]) | amount of IgA in the intestinal lavage fluids (ELISA), FIG. 3 (IgA) | amount of IgA produced in culture supernatants (ELISA), FIG. 8 (IgA production [3]) | IL-6 secretion induced by LPS stimulation (ELISA), FIG. 9 (IL-6 production [4]) | amount of IL-6 secretion induced by LPS stimulation (ELISA), FIG. 7 (IL-6 production [5]) | amount of IgA in culture supernatant (ELISA), FIG. 2 (IgA production [6]) | amount of IgA under LPS stimulation (ELISA), FIG. 6 (IgA production [7])
1 | CC=CSCC(N)C(=O)O (centres unmarked) [S-1-propenycysteine, S-1-propenylcysteine] | increased | increased | increased | significantly enhanced IgA production | significantly inhibited IL-6 secretion | reduced | promoted IgA production more strongly than other sulfur-containing amino acid compounds | higher promoting effect on IgA production than under no stimulation
2 | C/C=C\SC[C@H](N)C(=O)O [cis-S-1-propenycysteine, cis-S-1-Propenylcysteine] | – | – | – | virtually did not affect IgA production | – | – | – | –
3 | C/C=C/SC[C@H](N)C(=O)O [trans isomer, trans-S-1-Propenylcysteine] | – | – | – | significantly enhanced IgA production | significantly inhibited IL-6 secretion | – | – | –
